From PubChem BioAssay (NCI)
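Where inhibition never reached the appropriate level, the endpoint shown equals the highest concentration tested. Otherwise, values were interpolated linearly from a five-concentration, 48-hour dose response in 96-well plates. GI50 = concentration required for 50% inhibition of growth. TGI is the concentration that stops growth completely.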

Tests used:
Assay in all cases: growth of human tumour cells (NCI), 48 h
ACHN renal = tested on: ACHN renal
HCT-15 colon = tested on: HCT-15 colon
IGROV1 ovarian = tested on: IGROV1 ovarian
LOX IMVI melanoma = tested on: LOX IMVI melanoma
NCI-H460 lung = tested on: NCI-H460 lung
NCI/ADR-RES ovarian = tested on: NCI/ADR-RES ovarian
SK-MEL-5 melanoma = tested on: SK-MEL-5 melanoma
U251 CNS = tested on: U251 CNS
UACC-257 melanoma = tested on: UACC-257 melanoma
UO-31 renal = tested on: UO-31 renal

Compound | GI50 (ACHN renal) | TGI (ACHN renal) | GI50 (HCT-15 colon) | TGI (HCT-15 colon) | GI50 (IGROV1 ovarian) | TGI (IGROV1 ovarian) | GI50 (LOX IMVI melanoma) | TGI (LOX IMVI melanoma) | GI50 (NCI-H460 lung) | TGI (NCI-H460 lung) | GI50 (NCI/ADR-RES ovarian) | TGI (NCI/ADR-RES ovarian) | GI50 (SK-MEL-5 melanoma) | TGI (SK-MEL-5 melanoma) | GI50 (U251 CNS) | TGI (U251 CNS) | GI50 (UACC-257 melanoma) | TGI (UACC-257 melanoma) | GI50 (UO-31 renal) | TGI (UO-31 renal)
CS(=O)(=O)Nc1ccc(-c2ccc3c(NC(=O)C4CC4)n[nH]c3c2)cc1 | > 25 µM | > 25 µM | > 25 µM | > 25 µM | > 25 µM | > 25 µM | > 25 µM | > 25 µM | > 22.5 µM | > 25 µM | > 25 µM | > 25 µM | > 11.9 µM | > 25 µM | > 25 µM | > 25 µM | > 25 µM | > 25 µM | > 25 µM | > 25 µM
Cc1ccc2/c(=C/c3ccc(N(C)C)cc3)c3cc(-c4ccccc4)[n+](C)n3c2c1 | 0.175 µM | – | 0.824 µM | > 100 µM | 0.501 µM | – | < 0.01 µM | > 100 µM | 0.025 µM | 1.38 µM | 6.41 µM | > 100 µM | 0.0344 µM | 0.169 µM | < 0.01 µM | – | 0.0307 µM | 1.71 µM | 0.92 µM | –
CNc1nc(NC2CCCC2)nc(Sc2ccc(OC)cc2)n1 | > 10 µM | > 10 µM | > 10 µM | > 10 µM | > 10 µM | > 10 µM | > 10 µM | > 10 µM | > 10 µM | > 10 µM | > 10 µM | > 10 µM | > 10 µM | > 10 µM | > 10 µM | > 10 µM | > 10 µM | > 10 µM | > 10 µM | > 10 µM
COC(=O)c1c(O)ccc2[nH]c(C)c(C#N)c12 | 20.6 µM | > 100 µM | 42.1 µM | > 100 µM | 67.2 µM | > 100 µM | 30.9 µM | > 100 µM | 37.3 µM | > 100 µM | > 100 µM | > 100 µM | 24.3 µM | > 100 µM | 44.8 µM | > 100 µM | > 100 µM | > 100 µM | 33.9 µM | > 100 µM
C=CC(=O)N1CCN(c2ncnc3c(F)c(-c4c(O)cccc4F)c(Cl)cc23)CC1 | 4.84 µM | 17.7 µM | 10 µM | 27 µM | 11.6 µM | 24.8 µM | 12.6 µM | 31 µM | 14.8 µM | 33.5 µM | 22.1 µM | 76.1 µM | 13.6 µM | 26.5 µM | 13.2 µM | 46.8 µM | 14.4 µM | 30.4 µM | 14.7 µM | 29 µM
COc1ccc2c(-c3cc4ccccc4o3)cc(=O)oc2c1 | – | > 100 µM | – | > 100 µM | – | > 100 µM | – | > 100 µM | – | > 100 µM | – | > 100 µM | – | > 100 µM | – | > 96 µM | – | > 100 µM | – | 65.6 µM
O=C(Nc1cc(-c2ccccc2)[nH]n1)c1ccc(Cl)cc1 | 5.27 µM | > 100 µM | 4.14 µM | > 100 µM | 3.04 µM | > 100 µM | 9.23 µM | > 100 µM | 3.58 µM | > 100 µM | > 100 µM | > 100 µM | > 100 µM | > 100 µM | 9.42 µM | > 100 µM | > 100 µM | > 100 µM | 7.32 µM | > 100 µM
NCCN1CCN(c2nccc(-c3ccc4ccccc4c3)n2)CC1 | 1.71 µM | 3.29 µM | 1.79 µM | 3.54 µM | 1.97 µM | 4.12 µM | 1.76 µM | 3.31 µM | 1.91 µM | 3.69 µM | 2.48 µM | 6.71 µM | 1.67 µM | 3.05 µM | 1.85 µM | 3.52 µM | 1.86 µM | 3.41 µM | 1.5 µM | 2.96 µM
CNC(=O)c1cn(C[C@H](F)CCc2ccc(NC(=O)Cc3cc(OC4CC(F)(F)C4)cc(C)n3)nn2)nn1 | > 100 µM | > 100 µM | > 100 µM | > 100 µM | > 100 µM | > 100 µM | > 100 µM | > 100 µM | > 100 µM | > 100 µM | > 100 µM | > 100 µM | > 100 µM | > 100 µM | 0.102 µM | > 100 µM | > 100 µM | > 100 µM | > 100 µM | > 100 µM
COc1cc(/C=C2\CC3C4CC=C5CC(N6CCCC6)CC[C@]5(C)C4CC[C@]3(C)C2OC(C)=O)ccc1OCCN1CCCC1 (stereo not given in full) | 1.73 µM | 3.22 µM | 1.52 µM | 3.4 µM | 1.8 µM | 3.63 µM | 1.27 µM | 2.6 µM | 1.9 µM | 3.92 µM | 2.52 µM | 5.2 µM | – | – | 1.81 µM | 3.73 µM | 1.95 µM | 3.53 µM | 1.86 µM | 3.35 µM
CCCCCC(=O)Oc1ccc(/C(=C(\C)c2ccc(OC)cc2)c2ccc(OCCN3CCCCC3)cc2)cc1 | 10.7 µM | 22.6 µM | 2.92 µM | 10.2 µM | 10.4 µM | 25.9 µM | 2.19 µM | 5.22 µM | 4.42 µM | 15.8 µM | 11 µM | 26.1 µM | 1.8 µM | 3.57 µM | 5.13 µM | 17.6 µM | 2.31 µM | 5.83 µM | 3 µM | 14.4 µM
Cc1c(-c2nc(N)nc(C3CC3)c2C)nc(N)nc1C1CC1 | – | > 100 µM | – | > 100 µM | – | > 100 µM | – | > 100 µM | – | > 100 µM | – | > 100 µM | – | > 100 µM | – | > 100 µM | – | > 100 µM | – | > 100 µM
Cc1ccc(C(=O)CC(Sc2cccc(Cl)c2Cl)c2ccc(Cl)cc2)cc1C (stereo not given) | – | – | – | – | 19.7 µM | 41.2 µM | 13.5 µM | 32.2 µM | 19.1 µM | 42.1 µM | 23.3 µM | 48.9 µM | 16.6 µM | 33 µM | 11.5 µM | 25.8 µM | 20.9 µM | 48.6 µM | 20 µM | 40.9 µM
